In patent US12011444B2, “N-substituted indole derivatives as PGE2 receptor modulators” (Idorsia Pharmaceuticals Ltd, priority 2015, dated 2024):

What was measured:
EP4 = EP4 (Homo sapiens (Human), UniProt P35408); assay: hEP4 cAMP assay (BT549 breast cancer cells, HTRF cAMP); type: cell-based
Experimental: Plate is pre-incubated 45 minutes at room temperature. Subsequently, 2.5 microliters of PGE2 (final conc. 6 nM) are transferred into the assay plate. Plate is incubated 30 minutes at room temperature.

EP2 = EP2 (Homo sapiens (Human), UniProt P43116);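 note: antagonism of PGE2-stimulated cAMP accumulation in SF295 human glioblastoma cells with endogenous EP2, cAMP read by HTRF, expressed relative to DMSO control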
Excerpt: Human tumor cell lines expressing endogenously either EP4 or EP2 are used and cAMP accumulation in cells upon PGE2 stimulation is monitored. SF295 glioblastoma cells express high endogenous EP2 and no EP4, whereas BT549 breast cancer cells, express high endogenous EP4 levels and very low EP2 levels.
As a detection method for cAMP the HTRF (homogeneous time resolved fluorescence) Cisbio kit (HTRF cAMP dynamic 2 kit 20′000 tests Cisbio Cat. #62AM4PEC) was used, which is based on a competitive immunoassay using a Cryptate-labeled anti-cAMP antibody and d2-labeled cAMP. Native cAMP produced by cells or unlabeled cAMP (for the standard curve) compete with exogenously added d2-labeled cAMP (acceptor) for binding to monoclonal anti-cAMP-Eu3+Cryptate (donor). A FRET signal (Fluorescence Resonance Energy Transfer) is obtained only if the labeled anti-cAMP antibody binds the d2 labelled cAMP, thus the specific signal (i.e. energy transfer) is inversely proportional to the concentration of cAMP in the standard or sample.
The SF295 cells (NCI/No. 0503170) are detached from culture dishes with a cell dissociation buffer (Invitrogen, 13151-014), and collected in growing medium (GM: RPM11640 (Invitrogen 21875)/10% FCS, 1% Penicilin/streptomycin). Cells are counted washed and resuspended in assay buffer (AB; HBSS, 20 mM HEPES, 0.2% BSA; 2 mM IBMX). 4,000 cells in 5 μl of AB are seeded per well of a small volume 384 well plate (black with flat bottom, Greiner 784076).
PGE2 (Cayman 14010, stock solution: 75 μM in DMSO) is used as agonist at 75 nM final concentration, corresponding to EC80.
Two point five microliters of diluted compounds are transferred into the assay plate. Plate is pre-incubated 45 minutes at room temperature. Subsequently, 2.5 microliters of PGE2 (final conc. 75 nM) are transferred into the assay plate. Plate is incubated 30 minutes at room temperature. Five μl of each donor (anti-cAMP cryptate) and acceptor (cAMP-d2) are added and the plate is incubated another hour at room temperature in the dark and then read using a BMG LABTECH PHERAstar reader (Excitation: 337 nm, Emission: 620 and 665 nm).
The obtained Delta F (fluorescence) values (665 nm/620 nM) are converted into % cAMP values using the measurements of the cAMP calibrator provided in the kit. For each compound concentration the percentage of cAMP compared to DMSO control value as average±STDEV (each concentration is measured in duplicate) is calculated.
IC50 values and curves are generated with XLfit software (IDBS) using Dose-Response One Site model 203. When compounds were measured multiple times, mean values are given.

[1] = antagonistic activity, mean values where measured multiple times

EP2, sequence (P43116 whole entry): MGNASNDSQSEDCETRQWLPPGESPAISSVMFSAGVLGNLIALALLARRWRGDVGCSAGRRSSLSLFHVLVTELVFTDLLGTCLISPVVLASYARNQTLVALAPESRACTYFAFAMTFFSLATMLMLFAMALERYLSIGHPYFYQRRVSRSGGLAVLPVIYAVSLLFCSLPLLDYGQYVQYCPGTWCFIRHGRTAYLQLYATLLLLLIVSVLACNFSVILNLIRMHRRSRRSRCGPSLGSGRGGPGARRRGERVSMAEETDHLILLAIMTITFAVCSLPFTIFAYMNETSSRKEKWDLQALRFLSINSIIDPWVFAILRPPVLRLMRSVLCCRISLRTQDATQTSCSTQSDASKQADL
EP4, sequence (P35408 whole entry): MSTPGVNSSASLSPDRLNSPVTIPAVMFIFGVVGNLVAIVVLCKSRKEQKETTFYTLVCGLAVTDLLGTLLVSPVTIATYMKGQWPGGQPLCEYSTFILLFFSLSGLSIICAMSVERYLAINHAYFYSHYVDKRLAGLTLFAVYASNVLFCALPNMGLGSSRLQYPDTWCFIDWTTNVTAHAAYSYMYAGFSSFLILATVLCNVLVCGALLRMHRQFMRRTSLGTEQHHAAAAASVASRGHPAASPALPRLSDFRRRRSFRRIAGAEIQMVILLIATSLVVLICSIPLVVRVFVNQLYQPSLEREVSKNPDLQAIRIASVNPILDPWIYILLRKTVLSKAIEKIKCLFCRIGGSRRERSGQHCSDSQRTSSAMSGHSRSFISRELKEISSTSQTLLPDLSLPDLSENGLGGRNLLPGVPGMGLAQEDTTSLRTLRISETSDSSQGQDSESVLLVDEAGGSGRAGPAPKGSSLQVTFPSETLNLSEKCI

| Compound | IC50 (EP4; [1]) | IC50 (EP2) | IC50 (EP4; (*): measured using the cAMP assay) |
| --- | --- | --- | --- |
| CCOc1cc(-c2cc(NCCn3c(Cl)cc4c(OC)ccc(Cl)c43)ncn2)ccc1C(=O)O [Example 775, 4-{6-[2-(2,7-Dichloro-4-methoxy-indol-1-yl)-ethylamino]-pyrimidin-4-yl}-2-ethoxy-benzoic acid] | 206 nM | 10 nM | – |
| Cc1ccc(F)c2c1cc(C)n2CCNc1cc(-c2ccc(C(=O)O)c(OC(F)(F)F)c2)ncn1 [compound 508] | 583 nM | 37 nM | – |
| CCOc1cc(-c2cc(NCCn3c(C)cc4c(Br)cccc43)ncn2)sc1C(=O)O [Example 781, 5-{6-[2-(4-Bromo-2-methyl-indol-1-yl)-ethylamino]-pyrimidin-4-yl}-3-ethoxy-thiophene-2-carboxylic acid] | 18 nM | 1 nM | – |
| COc1ccc(C)c2c1cc(C)n2CCNc1cc(-c2ccc(C(=O)O)c(CC(C)C)c2)ncn1 [compound 507] | 163 nM | 18 nM | – |
| CCOc1cc(-c2cc(NCCn3c(C#N)cc4c(OC)ccc(F)c43)ncn2)sc1/C=C/C(=O)O [Example 931, (E)-3-(5-{6-[2-(2-Cyano-7-fluoro-4-methoxy-indol-1-yl)-ethylamino]-pyrimidin-4-yl}-3-ethoxy-thiophen-2-yl)-acrylic acid] | – | 35 nM | 14 nM |
| CCOc1cc(-c2cc(NCCn3c(C)cc4c(C)ccc(F)c43)ncn2)cc(F)c1C(=O)O [compound 435] | 159 nM | 13 nM | – |
| CCCCOc1cc(-c2cc(NCCn3c(C)cc4c(OC)ccc(F)c43)ncn2)sc1C(=O)O [compound 673] | 3 nM | 2 nM | – |
| CCOc1cc(-c2cc(NCCn3c(Cl)cc4c(C)ccc(F)c43)ncn2)ccc1C(=O)O [Example 779, 4-{6-[2-(2-Chloro-7-fluoro-4-methyl-indol-1-yl)-ethylamino]-pyrimidin-4-yl}-2-ethoxy-benzoic acid] | 242 nM | 28 nM | – |
| CCCc1cc(-c2cc(NCCn3c(C)cc4c(OC)ccc(F)c43)ncn2)cc(OCC)c1C(=O)O [compound 634] | 196 nM | 27 nM | – |

Other lines, results leading:

| IC50 (EP4; [1]) | IC50 (EP2) | IC50 (EP4; (*): measured using the cAMP assay) | Compound |
| --- | --- | --- | --- |
| 48 nM | 18 nM | – | COc1ccc(F)c2c1cc(C)n2CCNc1cc(-c2ccc(-c3csc(C(=O)O)n3)cc2)ncn1 [compound 476, 4-(4-{6-[2-(7-Fluoro-4-methoxy-2-methyl-indol-1-yl)-ethylamino]-pyrimidin-4-yl}-phenyl)-thiazole-2-carboxylic acid] |
| 32 nM | 4 nM | – | COc1ccc(F)c2c1cc(C)n2CCNc1cc(-c2ccc(-c3nc(C(=O)O)cs3)cc2)ncn1 [compound 580] |
| 302 nM | 146 nM | – | Cc1nc(CCC(=O)O)oc1-c1ccc(-c2cc(NCCn3c(C)cc4c(C)cc(F)cc43)ncn2)cc1 [compound 647] |
| 106 nM | 2 nM | – | COc1cc(F)cc2c1cc(C)n2CCNc1cc(-c2ccc(C(=O)O)c(NCC(F)(F)F)c2)ncn1 [compound 587, 4-{6-[2-(6-Fluoro-4-methoxy-2-methyl-indol-1-yl)-ethylamino]-pyrimidin-4-yl}-2-(2,2,2-trifluoro-ethylamino)-benzoic acid] |
| 177 nM | 63 nM | – | COc1cc(F)c(F)c2c1cc(C)n2CCNc1cc(-c2ccc(-c3oncc3C)cc2)ncn1 [compound 738] |
| 99 nM | 8 nM | – | CCCOc1cc(-c2cc(NCCn3c(C)cc4c(OC)ccc(F)c43)ncn2)ccc1C(=O)O [compound 496] |
| 109 nM | 36 nM | – | COc1cc(F)cc2c1cc(C)n2CCNc1cc(-c2ccc3ccncc3c2)ncn1 [compound 728] |
| 741 nM | 252 nM | – | CCOc1cc(-c2cc(NCCn3c(C)cc4c(OC)cccc43)ncn2)ccc1CNC1CC1 [compound 463] |
| 178 nM | 47 nM | – | Cc1cc(F)cc2c1cc(C)n2CCNc1cc(-c2ccc(-c3csc(C(=O)O)n3)cc2)ncn1 [compound 544] |
